For 1 compound, IC50 results are on record in patent EP2928896B1, “SOLID FORM OF DIHYDRO-PYRIDO-OXAZINE DERIVATIVE” (NOVARTIS AG, priority 2012, dated 2014).

SMILES strings stand for the structures.

For experiment [1], the target named is PI3K alpha (Homo sapiens, UniProt P42336). Nature of the experiment: Enzymatic PI3K alpha isoform inhibition (lipid kinase activity, Kinase-Glo luminescence / ATP depletion). It counts as biochemical. The source says: The reaction is started by the addition of PI3 kinase, e.g. PI3 kinase δ.
The reaction is started by the addition of ATP.

Experiment [2] deals with T1, PI3K delta (Homo sapiens, UniProt O00329).
T1 construct: for the full-length p110-d subunit are generated and fused by overlapping PCR; p85 iSH2 (inter SH2 domain) fusion partner (N); His tag (C); made in house; host or cells: baculovirus; Tn5 (Trichoplusia ni) or TiniPro insect cells
Nature of the experiment: Enzymatic PI3K delta isoform inhibition (lipid kinase activity, Kinase-Glo luminescence / ATP depletion). It counts as biochemical.

Experiment [3] has as its target T2, PI3Kδ (Homo sapiens, UniProt O00329).
T2 construct: expressed in transfected cells
T2 sequence (O00329 1-1044): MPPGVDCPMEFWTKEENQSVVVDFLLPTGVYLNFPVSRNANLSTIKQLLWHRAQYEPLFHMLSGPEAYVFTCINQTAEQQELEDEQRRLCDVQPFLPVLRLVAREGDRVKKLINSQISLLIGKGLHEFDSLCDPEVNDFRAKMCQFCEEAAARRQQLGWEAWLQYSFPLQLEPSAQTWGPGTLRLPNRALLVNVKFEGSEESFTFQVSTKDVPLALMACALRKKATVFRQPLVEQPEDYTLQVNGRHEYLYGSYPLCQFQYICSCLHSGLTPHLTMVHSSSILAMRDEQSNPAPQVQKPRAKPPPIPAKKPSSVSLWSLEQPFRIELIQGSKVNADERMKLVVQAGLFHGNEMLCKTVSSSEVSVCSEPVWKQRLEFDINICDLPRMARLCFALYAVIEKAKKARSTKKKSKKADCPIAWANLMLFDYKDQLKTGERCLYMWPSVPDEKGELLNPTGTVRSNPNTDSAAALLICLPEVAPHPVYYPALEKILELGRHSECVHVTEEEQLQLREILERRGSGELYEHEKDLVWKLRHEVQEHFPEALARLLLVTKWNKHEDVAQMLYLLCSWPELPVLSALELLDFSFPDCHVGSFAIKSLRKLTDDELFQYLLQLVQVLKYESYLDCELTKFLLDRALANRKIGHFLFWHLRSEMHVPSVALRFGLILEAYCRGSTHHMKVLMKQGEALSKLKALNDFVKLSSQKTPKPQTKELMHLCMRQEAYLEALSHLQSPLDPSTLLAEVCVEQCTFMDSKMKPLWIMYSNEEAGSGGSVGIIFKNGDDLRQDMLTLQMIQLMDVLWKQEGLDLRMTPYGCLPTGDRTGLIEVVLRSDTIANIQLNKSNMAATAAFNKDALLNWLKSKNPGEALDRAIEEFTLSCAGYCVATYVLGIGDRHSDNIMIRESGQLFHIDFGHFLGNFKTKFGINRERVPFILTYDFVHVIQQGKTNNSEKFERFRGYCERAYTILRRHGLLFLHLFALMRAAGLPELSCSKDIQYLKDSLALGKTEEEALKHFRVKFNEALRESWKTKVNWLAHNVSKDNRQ
Nature of the experiment: PI3K-mediated Akt 1/2 (S473) phosphorylation in Rat-1 cells overexpressing myristoylated PI3K delta (AlphaScreen SureFire). It counts as cell-based. The method, then:
Rat-1 cells stably overexpressing a myristoylated form of the catalytic subunit of human phosphoinositide-3 kinase (PI3K) alpha, beta or delta were plated in 384-well plates at a density of 7500 (PI3K alpha), 6200 (PI3K beta), or 4000 (PI3K delta) cells in 30ul complete growth medium (Dulbecco's modified Eagle's medium (DMEM high glucose) supplemented with 10% (v/v) fetal bovine serum, 1% (v/v) MEM non essential amino acids, 10mM HEPES, 2mM L-glutamine, 10 µg/mL puromycin and 1% (v/v) Penicillin/Streptomycin) and were incubated at 37%C / 5%CO2 / 95% humidity for 24h. Compounds were diluted in 384-well compound plates to obtain 8-point serial dilutions for 40 test compounds in 90% DMSO, as well as 4 reference compounds plus 16 high controls and 16 low (inhibited) controls. Predilution plates were prepared by dispensing pipetting 250 nl of compound solutions into 384-well polypropylen plates using a Hummingwell nanoliter dispensor. Compounds were prediluted by the addition of 49.75 ul complete growth medium. 10ul of prediluted compound solution were transferred to the cell plate using a 384-well pipettor, resulting in a final DMSO concentration of 0.11%. […]
For detection of p-AKT(Ser473), the SureFire® p-Akt 1/2 (Ser473) Assay Kit (PerkinElmer, U.S.A) was used. […] The plate was read on an AlphaScreen® compatible plate reader, using standard AlphaScreen® settings.

Chain of PI3K alpha (P42336 with tags, fused parts or gaps limits assumed): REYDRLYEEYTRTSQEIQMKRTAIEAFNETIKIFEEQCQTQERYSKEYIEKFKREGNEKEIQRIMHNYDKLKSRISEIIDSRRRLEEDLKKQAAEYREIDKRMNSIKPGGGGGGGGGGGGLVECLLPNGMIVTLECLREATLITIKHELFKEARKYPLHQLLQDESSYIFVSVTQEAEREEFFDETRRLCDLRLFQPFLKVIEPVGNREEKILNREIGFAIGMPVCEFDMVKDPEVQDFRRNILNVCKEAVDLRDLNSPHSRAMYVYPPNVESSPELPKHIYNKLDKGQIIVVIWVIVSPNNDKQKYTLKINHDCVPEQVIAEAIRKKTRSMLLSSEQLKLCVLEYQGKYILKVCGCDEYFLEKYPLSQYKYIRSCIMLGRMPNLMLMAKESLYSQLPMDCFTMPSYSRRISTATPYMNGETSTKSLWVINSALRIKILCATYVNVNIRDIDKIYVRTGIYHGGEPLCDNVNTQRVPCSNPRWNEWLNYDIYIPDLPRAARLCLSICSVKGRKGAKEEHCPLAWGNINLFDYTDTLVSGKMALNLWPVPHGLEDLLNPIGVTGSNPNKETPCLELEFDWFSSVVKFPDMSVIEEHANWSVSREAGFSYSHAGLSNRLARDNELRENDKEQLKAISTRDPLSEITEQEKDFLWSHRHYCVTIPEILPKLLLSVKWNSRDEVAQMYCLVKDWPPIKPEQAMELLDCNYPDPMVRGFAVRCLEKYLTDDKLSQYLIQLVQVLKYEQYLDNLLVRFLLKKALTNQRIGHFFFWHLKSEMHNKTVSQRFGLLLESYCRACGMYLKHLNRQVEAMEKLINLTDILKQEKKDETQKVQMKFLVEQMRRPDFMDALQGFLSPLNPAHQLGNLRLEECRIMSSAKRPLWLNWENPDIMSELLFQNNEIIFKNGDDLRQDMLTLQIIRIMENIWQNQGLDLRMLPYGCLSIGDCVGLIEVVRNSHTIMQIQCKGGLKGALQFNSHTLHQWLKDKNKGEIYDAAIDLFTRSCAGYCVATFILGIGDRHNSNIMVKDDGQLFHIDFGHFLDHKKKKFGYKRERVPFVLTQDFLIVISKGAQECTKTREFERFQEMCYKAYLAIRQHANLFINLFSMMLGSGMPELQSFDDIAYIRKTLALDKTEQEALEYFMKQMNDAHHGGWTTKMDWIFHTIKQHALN
T1 sequence (O00329 with tags, fused parts or gaps limits assumed): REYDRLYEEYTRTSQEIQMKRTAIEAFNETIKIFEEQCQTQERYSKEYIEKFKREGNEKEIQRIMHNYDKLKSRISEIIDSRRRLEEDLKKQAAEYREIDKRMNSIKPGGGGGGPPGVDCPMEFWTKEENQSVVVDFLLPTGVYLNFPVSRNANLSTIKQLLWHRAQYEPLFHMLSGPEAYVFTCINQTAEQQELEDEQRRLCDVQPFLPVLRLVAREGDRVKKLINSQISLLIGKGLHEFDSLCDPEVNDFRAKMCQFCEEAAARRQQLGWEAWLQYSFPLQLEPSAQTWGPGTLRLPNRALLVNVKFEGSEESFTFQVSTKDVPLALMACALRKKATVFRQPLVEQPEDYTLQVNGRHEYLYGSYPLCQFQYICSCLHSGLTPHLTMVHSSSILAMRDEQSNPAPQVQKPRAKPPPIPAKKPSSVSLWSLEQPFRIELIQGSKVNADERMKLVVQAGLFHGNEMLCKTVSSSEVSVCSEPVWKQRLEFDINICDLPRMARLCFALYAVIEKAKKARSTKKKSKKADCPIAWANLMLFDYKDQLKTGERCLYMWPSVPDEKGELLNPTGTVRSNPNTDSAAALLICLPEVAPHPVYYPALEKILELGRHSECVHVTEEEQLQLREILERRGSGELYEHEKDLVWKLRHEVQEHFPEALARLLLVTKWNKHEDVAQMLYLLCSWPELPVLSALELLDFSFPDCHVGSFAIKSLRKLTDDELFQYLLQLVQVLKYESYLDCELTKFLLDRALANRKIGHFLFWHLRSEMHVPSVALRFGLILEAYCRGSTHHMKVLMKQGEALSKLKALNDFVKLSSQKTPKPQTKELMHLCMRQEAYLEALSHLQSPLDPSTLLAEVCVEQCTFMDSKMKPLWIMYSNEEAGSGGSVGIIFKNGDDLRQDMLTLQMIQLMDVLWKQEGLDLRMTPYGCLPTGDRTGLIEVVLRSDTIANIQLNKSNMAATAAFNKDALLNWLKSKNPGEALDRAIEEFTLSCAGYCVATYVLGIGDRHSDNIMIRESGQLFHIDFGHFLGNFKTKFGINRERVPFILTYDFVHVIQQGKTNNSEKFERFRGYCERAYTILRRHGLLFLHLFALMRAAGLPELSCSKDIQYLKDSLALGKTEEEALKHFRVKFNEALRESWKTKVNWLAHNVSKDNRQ

Turning to `COc1ncc(N2CCOc3cnc(O[C@H]4CCN(C(=O)C5CCS(=O)(=O)CC5)C4)cc32)cc1C` [Example F1, (1,1-Dioxo-hexahydro-1lambda*6*-thiopyran-4-yl)-{(S)-3-[1-(6-methoxy-5-methyl-pyridin-3-yl)-2,3-dihydro-1H-pyrido[3,4-b][1,4]oxazin-7-yloxy]-pyrrolidin-1-yl}-methanone], the IC50 in experiment [1] turned out to be 109 nM; in experiment [2], 3 nM; in experiment [3], 11 nM.
